Experimental data: ChEMBL document CHEMBL1909046, “DrugMatrix in vitro pharmacology data”

What was measured:
[1] = molecular target: Cytochrome P450 2E1 (Homo sapiens, UniProt P05181); conditions: bti-tn-5b1-4; further: in other assays of this panel Not Active means under 50% inhibition at 10 µM
[2] = molecular target: T1, Substance-K receptor (Homo sapiens, UniProt P21452); type: cell membranes, CHO, Membrane; conditions: for Ki: read-out: Ki; on all read-outs here: in other assays of this panel Not Active means under 50% inhibition at 10 µM
T1 sequence (P21452 whole entry): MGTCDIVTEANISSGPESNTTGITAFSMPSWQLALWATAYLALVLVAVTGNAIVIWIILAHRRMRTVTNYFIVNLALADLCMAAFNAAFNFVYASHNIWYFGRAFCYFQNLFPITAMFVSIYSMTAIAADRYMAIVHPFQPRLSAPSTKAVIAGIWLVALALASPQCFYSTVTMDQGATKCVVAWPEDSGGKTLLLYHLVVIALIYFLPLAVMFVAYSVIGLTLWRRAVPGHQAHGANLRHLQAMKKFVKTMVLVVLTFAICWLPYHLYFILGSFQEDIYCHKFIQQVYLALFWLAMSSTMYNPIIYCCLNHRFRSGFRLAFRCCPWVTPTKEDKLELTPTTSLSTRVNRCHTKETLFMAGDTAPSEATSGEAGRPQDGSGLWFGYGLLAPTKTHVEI

[3] = molecular target: Cannabinoid receptor 1 (Homo sapiens, UniProt P21554); type: cell membranes, Chem-1, Membrane; conditions: chem-1; further: in other assays of this panel Not Active means under 50% inhibition at 10 µM
[4] = molecular target: T2, Amine oxidase [flavin-containing] A (Homo sapiens, UniProt P21397); assay: DRUGMATRIX: Monoamine Oxidase MAO-A enzyme inhibition (substrate: Kynuramine); set-up: species or system BTI-TN-5B1-4; conditions: Not Active = under 50% inhibition at 10 µM
T2 sequence (P21397 whole entry): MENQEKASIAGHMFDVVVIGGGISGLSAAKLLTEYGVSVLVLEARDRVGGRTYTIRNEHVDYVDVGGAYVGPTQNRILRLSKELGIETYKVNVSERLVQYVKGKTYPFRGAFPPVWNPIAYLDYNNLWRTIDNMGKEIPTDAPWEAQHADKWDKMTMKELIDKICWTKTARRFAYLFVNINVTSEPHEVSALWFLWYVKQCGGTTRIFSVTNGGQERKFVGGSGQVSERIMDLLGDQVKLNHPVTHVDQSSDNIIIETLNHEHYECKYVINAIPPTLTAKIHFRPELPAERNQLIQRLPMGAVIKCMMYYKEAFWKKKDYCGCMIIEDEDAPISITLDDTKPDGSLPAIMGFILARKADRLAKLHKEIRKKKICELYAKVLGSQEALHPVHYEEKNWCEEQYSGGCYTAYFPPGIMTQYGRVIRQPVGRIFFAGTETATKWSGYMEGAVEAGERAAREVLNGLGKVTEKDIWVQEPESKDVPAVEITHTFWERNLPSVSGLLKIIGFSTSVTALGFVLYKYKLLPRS

[5] = DRUGMATRIX: Calcium Channel Type L, Dihydropyridine radioligand binding (ligand: [3H] Nitrendipine); type: cell membranes, Rattus norvegicus, Wistar, Cerebral cortex, Membrane; conditions: Not Active = under 50% inhibition at 10 µM
[6] = DRUGMATRIX: Phosphodiesterase PDE4 enzyme inhibition (substrate: [3H]cAMP + cAMP); conditions: u-937, Not Active = under 50% inhibition at 10 µM

Sequence of Cytochrome P450 2E1 (P05181 whole entry): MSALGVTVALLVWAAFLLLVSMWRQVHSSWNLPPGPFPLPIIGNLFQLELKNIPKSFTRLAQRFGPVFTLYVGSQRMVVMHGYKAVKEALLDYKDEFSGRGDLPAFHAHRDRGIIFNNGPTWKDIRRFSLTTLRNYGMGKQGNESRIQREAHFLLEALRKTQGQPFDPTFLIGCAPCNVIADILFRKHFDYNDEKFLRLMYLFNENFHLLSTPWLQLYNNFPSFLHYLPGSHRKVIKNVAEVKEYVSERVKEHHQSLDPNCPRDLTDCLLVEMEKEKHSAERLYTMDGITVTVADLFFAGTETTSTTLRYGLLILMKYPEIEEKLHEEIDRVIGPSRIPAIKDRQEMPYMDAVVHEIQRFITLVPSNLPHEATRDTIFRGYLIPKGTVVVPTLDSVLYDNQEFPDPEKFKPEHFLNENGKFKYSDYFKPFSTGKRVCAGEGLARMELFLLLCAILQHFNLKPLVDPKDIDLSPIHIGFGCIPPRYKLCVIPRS
Sequence of Cannabinoid receptor 1 (P21554 whole entry): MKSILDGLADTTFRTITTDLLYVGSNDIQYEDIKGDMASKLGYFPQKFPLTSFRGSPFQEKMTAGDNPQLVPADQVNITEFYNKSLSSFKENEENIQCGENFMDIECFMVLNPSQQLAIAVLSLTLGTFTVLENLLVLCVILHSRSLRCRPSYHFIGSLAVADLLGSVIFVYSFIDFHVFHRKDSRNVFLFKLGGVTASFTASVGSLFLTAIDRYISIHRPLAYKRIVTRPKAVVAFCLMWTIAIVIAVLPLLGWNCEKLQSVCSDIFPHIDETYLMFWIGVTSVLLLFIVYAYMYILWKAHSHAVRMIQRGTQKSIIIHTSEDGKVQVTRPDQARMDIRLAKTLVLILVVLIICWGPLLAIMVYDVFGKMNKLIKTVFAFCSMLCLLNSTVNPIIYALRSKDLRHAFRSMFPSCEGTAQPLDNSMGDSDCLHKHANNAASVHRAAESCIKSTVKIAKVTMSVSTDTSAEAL

Compound | IC50 [1] | Ki [1] | IC50 ([2]; cho) | IC50 [3] | IC50 ([4]; bti-tn-5b1-4) | IC50 [5] | Ki [5] | IC50 [6] | Ki [6] | IC50 ([6]; read-out: IC50) | IC50 ([2]; read-out: IC50) | Ki [2] | IC50 ([2]; cho, read-out: IC50) | Ki ([2]; cho) | Ki [3] | Ki ([4]; bti-tn-5b1-4) | IC50 ([4]; read-out: IC50)
Cn1c(=O)c2c(ncn2CC(O)CO)n(C)c1=O (stereo not drawn) [DYPHYLLINE] | Not Active | Not Active | Not Active | Not Active | Not Active | Not Active | Not Active | Not Active | Not Active |  |  |  |  |  |  |  | 
O=c1cc(N2CCOCC2)oc2c(-c3ccccc3)cccc12 [LY-294002] | Not Active | Not Active | Not Active | Not Active | Not Active | Not Active | Not Active |  |  | 10400 nM |  |  |  |  |  |  | 
C[C@@H]1C[C@H]2[C@@H]3CCC4=CC(=O)C=C[C@]4(C)[C@@]3(F)[C@@H](O)C[C@]2(C)[C@H]1C(=O)CO [DESOXIMETASONE] | Not Active | Not Active | Not Active | Not Active | Not Active | Not Active | Not Active | Not Active | Not Active |  |  |  |  |  |  |  | 
CC(C)(C)NC(=O)[C@H]1CC[C@H]2[C@@H]3CC[C@H]4NC(=O)C=C[C@]4(C)[C@H]3CC[C@]12C [FINASTERIDE] | Not Active | Not Active | Not Active | Not Active | Not Active | Not Active | Not Active | Not Active | Not Active |  |  |  |  |  |  |  | 
CCn1cc(C(=O)O)c(=O)c2cnc(N3CCCC3)nc21 [PIROMIDIC ACID] | Not Active | Not Active | Not Active | Not Active | Not Active | Not Active | Not Active | Not Active | Not Active |  |  |  |  |  |  |  | 
CC1(C)S[C@@H]2[C@H](NC(=O)[C@H](N)c3ccccc3)C(=O)N2[C@H]1C(=O)O [AMPICILLIN] | Not Active | Not Active | Not Active | Not Active | Not Active | Not Active | Not Active | Not Active | Not Active |  |  |  |  |  |  |  | 
CCN(CC)CCOCCC1=CCC2CC1C2(C)C (stereo not drawn) [MYRTECAINE] | Not Active | Not Active | Not Active | Not Active | Not Active | Not Active | Not Active | Not Active | Not Active |  |  |  |  |  |  |  | 
COC(=O)Nc1nc2ccc([S+]([O-])c3ccccc3)cc2[nH]1 (stereo not drawn) [OXFENDAZOLE] | Not Active | Not Active | Not Active | Not Active | Not Active | Not Active | Not Active | Not Active | Not Active |  |  |  |  |  |  |  | 
Oc1c(Cl)cc(Cl)c(Cl)c1Cc1c(O)c(Cl)cc(Cl)c1Cl [HEXACHLOROPHENE] | Not Active | Not Active |  | Not Active | Not Active | Not Active | Not Active | Not Active | Not Active |  | 4140 nM | 1380 nM |  |  |  |  | 
COC1=C(OC)C(=O)C(CCCCCCCCCCO)=C(C)C1=O [IDEBENONE] | Not Active | Not Active | Not Active | Not Active | Not Active | Not Active | Not Active | Not Active | Not Active |  |  |  |  |  |  |  | 
C[C@]12C=CC(=O)C=C1CC[C@@H]1[C@@H]2[C@@H](O)C[C@@]2(C)[C@H]1CC[C@]2(O)C(=O)CO [PREDNISOLONE] | Not Active | Not Active | Not Active | Not Active | Not Active | Not Active | Not Active | Not Active | Not Active |  |  |  |  |  |  |  | 
O=C1O[C@H]([C@@H](O)CO)C(O)=C1O [ASCORBIC ACID] | Not Active | Not Active | Not Active | Not Active | Not Active | Not Active | Not Active | Not Active | Not Active |  |  |  |  |  |  |  | 
COc1ccc(C2C(=O)c3ccccc3C2=O)cc1 [ANISINDIONE] | Not Active | Not Active | Not Active | Not Active | Not Active | Not Active | Not Active | Not Active | Not Active |  |  |  |  |  |  |  | 
Brc1c(NC2=NCCN2)ccc2nccnc12 [BRIMONIDINE] | Not Active | Not Active | Not Active | Not Active | Not Active | Not Active | Not Active | Not Active | Not Active |  |  |  |  |  |  |  | 
COc1ccc(C(=O)N2CCCC2=O)cc1 | Not Active | Not Active | Not Active | Not Active | Not Active | Not Active | Not Active | Not Active | Not Active |  |  |  |  |  |  |  | 
C[C@@H]1C[C@H]2[C@@H]3CCC4=CC(=O)C=C[C@]4(C)[C@@]3(F)[C@@H](O)C[C@]2(C)[C@@]1(O)C(=O)CO [DEXAMETHASONE] | Not Active | Not Active | Not Active | Not Active | Not Active | Not Active | Not Active | Not Active | Not Active |  |  |  |  |  |  |  | 
O=C(c1ccccc1C(F)(F)F)N1CCC(Cc2ccccc2)CC1 | Not Active | Not Active | Not Active | Not Active | Not Active | Not Active | Not Active | Not Active | Not Active |  |  |  |  |  |  |  | 
CCC1(C)CC(=O)NC1=O (stereo not drawn) [ETHOSUXIMIDE] | Not Active | Not Active | Not Active | Not Active | Not Active | Not Active | Not Active | Not Active | Not Active |  |  |  |  |  |  |  | 
GRAMICIDIN | Not Active | Not Active |  | Not Active | Not Active | Not Active | Not Active | Not Active | Not Active |  |  |  | 4560 nM | 1520 nM | Not Active | Not Active | 
OC(CCCN1CCCCC1)(c1ccccc1)c1ccccc1 [DIPHENIDOL] | Not Active | Not Active | Not Active | Not Active | Not Active | Not Active | Not Active | Not Active | Not Active |  |  |  |  |  |  |  | 
CCC(=O)O[C@]1(C(=O)CCl)[C@@H](C)C[C@H]2[C@@H]3CCC4=CC(=O)C=C[C@]4(C)[C@@]3(F)[C@@H](O)C[C@@]21C [CLOBETASOL PROPIONATE] | Not Active | Not Active | Not Active | Not Active | Not Active | Not Active | Not Active | Not Active | Not Active |  |  |  |  |  |  |  | 
Cc1c(OCC(F)(F)F)ccnc1C[S+]([O-])c1nc2ccccc2[nH]1 (stereo not drawn) [LANSOPRAZOLE] | Not Active | Not Active | Not Active | Not Active | Not Active | Not Active | Not Active | Not Active | Not Active |  |  |  |  |  |  |  | 
CCCOc1ccc(C(=O)OCCN(CC)CC)cc1N [PROPARACAINE] | Not Active | Not Active | Not Active | Not Active |  | Not Active | Not Active | Not Active | Not Active |  |  |  |  |  |  |  | 1780 nM
CC(=O)[C@H]1[C@H](C#N)C[C@H]2[C@@H]3CC=C4C[C@@H](O)CC[C@]4(C)[C@H]3CC[C@@]21C [PREGNENOLONE CARBONITRILE] | Not Active | Not Active | Not Active | Not Active | Not Active | Not Active | Not Active | Not Active | Not Active |  |  |  |  |  |  |  | 
CN(C)CC[C@@H](c1ccc(Cl)cc1)c1ccccn1 [DEXCHLORPHENIRAMINE] | Not Active | Not Active | Not Active | Not Active | Not Active | Not Active | Not Active | Not Active | Not Active |  |  |  |  |  |  |  | 
